The subject of one data set is Staph aureus. The data set is described as follows: Petri dish zone of inhibition comparison with control agents. In kind it is cell-based, Staphylococcus aureus. The note with it: FIG. 16, identical size drops (diameters of ZOA).
In a further data set the test system is MRSA. The data set is described as follows: Petri dish zone of inhibition test. It counts as cell-based, Methicillin Resistant Staph Aureus. The conditions noted are these: FIG. 17, identical size drops (diameters of ZOA).
Another data set relates to HL-60 cells. The conditions noted are these: cited from earlier work; for subsequent retinoid-induced TGM2 expression after priming by pretreatment: HL-60 cells, short exposure.
In data set [1] the test system is MRSA infection and Grade I diabetic ulcer of the left hallux with cellulitus. The data set can be described thus: Study III: human field study, diabetic foot lesion with MRSA cellulitus. In kind it is in vivo. The note with it: IV, 8 days following admission, before the invention was used.
Method: In this embodiment, the additional ingredient to hasten a third therapeutic tissue healing effect was added. This embodiment used vitamin D in a small but medically efficacious amount.
In a further data set the test system is Enterococcus faecalis. The data set is described as follows: Petri dish zone of inhibition comparison with control agents. It counts as cell-based. The conditions noted are these: FIG. 25, identical size drops.
Data set [2] in a line: Study I: vancomycin peaks and troughs in the patient. In kind it is in vivo, human. The conditions noted are these: 1.5 g BID, Q12, seven doses; ranges not noted. As to the method:
Fri 2/5: Detection of a Strep-A strain, confirmed by culture study. Shifted from gentamycin to vancomycin 1.5 g BID, Q12. Patient was kept on this dosing regimen until 2/8 (date of discharge from hospital).
Mon 2/8: Patient received the last of seven doses of vancomycin. Throughout all of this their peaks (within 1 hour of receiving vancomycin) and troughs (before receiving vancomycin) were normal (ranges not noted here). Patient was discharged from the hospital on this date.

Data set [3] has as its system mouse embryonic stem cells and embryoid bodies. The note with it: cited from earlier work.

Like-named read-outs stand apart in the source and are kept apart here.

Consider 5 compounds from patent publication US20120070390A1, “Topical drug delivery system with dual carriers” (priority 2010, published 2012).

As for `CC[C@H]1OC(=O)[C@H](C)[C@@H](O[C@H]2C[C@@](C)(OC)[C@@H](O)[C@H](C)O2)[C@H](C)[C@@H](O[C@@H]2O[C@H](C)C[C@H](N(C)C)[C@H]2O)[C@](C)(O)C[C@@H](C)C(=O)[C@H](C)[C@@H](O)[C@]1(C)O` [Erythromycin], the “zones of inhibition of control agents compared with the formulations of the invention” value in the data set on Staph aureus and in the data set on MRSA was “considerably reduced zones of inhibition” in each case.

vitamin D: in the data set on HL-60 cells, the “subsequent retinoid-induced TGM2 expression after priming by pretreatment” value is “increases subsequent retinoid-induced TGM2 expression”. The “amount at which desired cellular responses occurred” value in the data set on HL-60 cells (vitamin D) is recorded as “about 100 nM”.

In the case of `CO[C@@]1(NC(=O)Cc2cccs2)C(=O)N2C(C(=O)O)=C(COC(N)=O)CS[C@@H]21` [Cefoxicillin], in the data set on MRSA, the “zones of inhibition of control agents compared with the formulations of the invention” value was “considerably reduced zones of inhibition”.

For `CN[C@H](CC(C)C)C(=O)N[C@H]1C(=O)N[C@@H](CC(N)=O)C(=O)N[C@H]2C(=O)N[C@H]3C(=O)N[C@H](C(=O)N[C@H](C(=O)O)c4cc(O)cc(O)c4-c4cc3ccc4O)[C@H](O)c3ccc(c(Cl)c3)Oc3cc2cc(c3O[C@@H]2O[C@H](CO)[C@@H](O)[C@H](O)[C@H]2O[C@H]2C[C@](C)(N)[C@H](O)[C@H](C)O2)Oc2ccc(cc2Cl)[C@H]1O` [Vancomycin], the “patient response to treatment” value in data set [1] was “did not respond”. In the data set with Enterococcus faecalis, the “zones of inhibition of control agents compared with the formulations of the invention” value is reported as “considerably reduced zones of inhibition”. In data set [2], the “peaks (within 1 hour of receiving) and troughs (before receiving)” value is listed as “normal”.

On to `C[S+](C)[O-]` [DMSO, dimethyl sulfoxide], for which the “mRNA and protein expression in epigenetic profiles” value in data set [3] is “upregulation of mRNA and protein expression”. The “amount at which desired cellular responses occurred” value in the data set with HL-60 cells (DMSO) is “less than 2%”. The “subsequent retinoid-induced TGM2 expression after priming by pretreatment” value in the data set with HL-60 cells is given as “increases subsequent retinoid-induced TGM2 expression”.
